Assay results published in patent US20250255795A1, “CYCLIC PEROXIDE, OXIDATION REACTION PRODUCT, METHOD FOR PRODUCING OXIDATION REACTION PRODUCT, AND APPLICATIONS OF THESE” (MEDIPLUS PHARMA, INC., priority 2021, published 2025).

Tests used:
melanin in skin = assay: whitening action, melanin measurement (Mexameter MX18) on half-face application; type: in vivo, human; conditions: inferred from loss of activity after heat treatment of ozonized glycerin
Description: Forty-eight healthy individuals (females, 41 years or older and 59 years or younger) participated as test subjects. The test subjects were well informed with description documents (including a consent form) in advance, and a written consent was acquired from each test subject.
For examination of the whitening action, a test product of Example 2-1A, a test product of Example 2-1B, a test product of Reference Example 2-1A, and a test product of Reference Example 2-1B were prepared.
The test subjects were divided into two groups below (24 test subjects in each group). Each test subject took two pushes (approximately 1 ml) of a test product on the hands and applied the test product to a specified half of the face after every face washing performed twice per day (morning and night). […]
Each test subject was subjected to quintuple melanin measurement for freckle sites in the left and right cheeks on the day of initiation of application of test products (week 0) and 4 weeks and 8 weeks after the initiation of application. […] In addition, the changes of melanin measurement values from those at the initiation of the test were determined. Statistical test was carried out with Student t-test, and cases with p<0.05 were determined to be significant differences. […]

TRPM2 = biological target: T1, TRPM2 (Homo sapiens, UniProt O94759); assay: TRP channel activation, intracellular Ca2+ in TRPM2 (expressing cells); type: cell-based
T1 construct: expressed in transfected cells
Source text: The TLC1 spot product produced in “(1) Production of Oxidation Reaction Product Containing Cyclic Peroxide According to the First Mode of the Present Invention” was directly used without separation (purification) to examine the TRP channel activation. Hereinafter, […]. Hereinafter, “OG” indicates a product formed by ozone-oxidizing glycerin with an oxygen generator (ozonized glycerin). In production of “OG”, the ozone oxidation of glycerin with an oxygen generator was performed with use of a gas having an ozone concentration of approximately 37000 ppm, which had been obtained through a process in which a high concentration of oxygen (oxygen concentration: 70% or more) was given to air with an oxygen generator and the oxygen was ozonized via an ozone generator, under Conditions A below. Hereinafter, “LOG” indicates a product formed by further oxidizing “OG”. Production of “LOG” by oxidation of “OG” was performed with use of a gas having an ozone concentration of approximately 37000 ppm, which had been obtained through a process in which oxygen from an oxygen tank (oxygen concentration: 99% or more) was ozonized via an ozone generator, under Conditions B below. […]

[1] = positive control, known activity; cited from earlier work
[2] = general statement; cited from earlier work

T1 sequence (O94759 whole entry): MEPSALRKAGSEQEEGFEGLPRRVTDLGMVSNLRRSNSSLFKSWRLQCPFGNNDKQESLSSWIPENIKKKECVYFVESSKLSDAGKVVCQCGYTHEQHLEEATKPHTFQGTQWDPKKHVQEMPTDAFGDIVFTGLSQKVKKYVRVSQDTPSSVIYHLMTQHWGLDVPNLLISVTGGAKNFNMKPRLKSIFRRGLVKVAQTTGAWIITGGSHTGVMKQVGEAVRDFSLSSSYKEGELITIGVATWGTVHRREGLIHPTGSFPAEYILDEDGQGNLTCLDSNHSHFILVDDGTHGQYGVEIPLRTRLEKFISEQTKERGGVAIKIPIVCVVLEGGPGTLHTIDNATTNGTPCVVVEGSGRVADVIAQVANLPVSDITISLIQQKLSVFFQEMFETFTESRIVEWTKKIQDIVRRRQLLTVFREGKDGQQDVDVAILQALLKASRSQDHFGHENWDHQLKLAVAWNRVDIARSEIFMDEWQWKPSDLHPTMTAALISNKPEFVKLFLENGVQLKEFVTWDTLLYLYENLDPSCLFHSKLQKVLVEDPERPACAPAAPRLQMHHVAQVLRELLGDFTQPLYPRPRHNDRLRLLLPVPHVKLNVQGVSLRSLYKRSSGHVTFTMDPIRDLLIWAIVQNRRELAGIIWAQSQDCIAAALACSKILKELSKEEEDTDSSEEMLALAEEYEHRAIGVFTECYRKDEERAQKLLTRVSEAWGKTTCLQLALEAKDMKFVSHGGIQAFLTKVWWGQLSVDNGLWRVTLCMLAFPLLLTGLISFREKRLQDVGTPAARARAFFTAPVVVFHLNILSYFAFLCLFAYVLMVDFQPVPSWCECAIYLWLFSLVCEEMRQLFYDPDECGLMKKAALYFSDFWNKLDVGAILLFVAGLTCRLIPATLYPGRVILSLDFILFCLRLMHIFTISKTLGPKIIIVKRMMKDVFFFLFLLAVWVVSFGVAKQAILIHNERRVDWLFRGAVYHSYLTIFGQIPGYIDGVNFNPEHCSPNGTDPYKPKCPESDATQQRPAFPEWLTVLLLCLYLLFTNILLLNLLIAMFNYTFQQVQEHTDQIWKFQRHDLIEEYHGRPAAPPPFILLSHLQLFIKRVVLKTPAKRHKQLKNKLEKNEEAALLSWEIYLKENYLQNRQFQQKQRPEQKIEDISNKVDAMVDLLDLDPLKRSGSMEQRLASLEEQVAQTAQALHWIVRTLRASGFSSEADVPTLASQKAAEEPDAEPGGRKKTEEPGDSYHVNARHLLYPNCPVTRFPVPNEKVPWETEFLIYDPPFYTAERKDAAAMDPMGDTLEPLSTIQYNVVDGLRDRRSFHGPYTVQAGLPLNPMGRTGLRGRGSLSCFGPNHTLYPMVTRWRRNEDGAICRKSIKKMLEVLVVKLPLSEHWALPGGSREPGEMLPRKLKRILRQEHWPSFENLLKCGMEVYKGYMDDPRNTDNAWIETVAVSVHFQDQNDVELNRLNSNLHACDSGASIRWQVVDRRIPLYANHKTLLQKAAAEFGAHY

## OCC(O)C1OOCOCC1O (single isomer, unassigned) [compound of the chemical formula (1)]
Melanin in skin
  whitening action (inferred active ingredient): active ingredient responsible for the whitening action

## OCC(O)CO [G, glycerin]
TRPM2; 10% by mass aqueous solution, FIG. 1-24
  TRP channel activation (net intracellular Ca2+ increase rates): high TRP channel activation
TRPM2; concentrations (% by mass) of the aqueous solutions changed, FIG. 1-25
  TRP channel activation (net intracellular Ca2+ increase rates): higher TRP channel activation at high concentrations

## O=C(C[n+]1ccsc1)c1ccccc1.[Br-] [PTB, N-phenacylthiazolium bromide]
[1]
  cleavage activity to crosslinking structures formed by AGEs: known to have cleavage activity to crosslinking structures formed by AGEs

## C[C@@H]1CC[C@H]2[C@@H](C)C(=O)O[C@@H]3O[C@@]4(C)CC[C@@H]1[C@]32OO4 [artemisinin]
[2]
  water solubility and liposolubility: neither water-soluble nor liposoluble
